Test results taken from ChEMBL document CHEMBL1781981, “Identification of a novel series of 3-piperidinyl-5-sulfonylindazoles as potent 5-HT6 ligands” (Bioorg Med Chem Lett, 2009).

biological target: 5-hydroxytryptamine receptor 6 (Homo sapiens, UniProt P50406); test: Antagonist activity at human 5HT6 receptor expressed in HeLa cells assessed as inhibition of 5-HT-induced cAMP accumulation; assay type: functional, cell-based
Sequence (P50406 whole entry): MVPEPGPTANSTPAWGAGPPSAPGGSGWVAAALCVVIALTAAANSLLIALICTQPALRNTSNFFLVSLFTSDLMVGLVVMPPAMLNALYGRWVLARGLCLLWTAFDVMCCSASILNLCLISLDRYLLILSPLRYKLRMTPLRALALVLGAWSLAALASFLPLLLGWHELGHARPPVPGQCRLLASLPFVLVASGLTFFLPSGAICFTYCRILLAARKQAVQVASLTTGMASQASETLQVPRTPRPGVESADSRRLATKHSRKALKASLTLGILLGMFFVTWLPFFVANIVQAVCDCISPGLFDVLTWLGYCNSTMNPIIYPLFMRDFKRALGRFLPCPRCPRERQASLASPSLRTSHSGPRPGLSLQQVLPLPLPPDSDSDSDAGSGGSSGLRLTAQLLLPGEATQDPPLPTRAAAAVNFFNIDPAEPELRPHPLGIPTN

IC50 | Imax | SMILES
251 nM | 100% | CN1CCC(c2n[nH]c3ccc(S(=O)(=O)c4cccc5ccccc45)cc23)CC1
754 nM | 95% | CN1CCC(c2n[nH]c3ccc(S(=O)(=O)c4cccc(Cl)c4)cc23)CC1
102 nM | 100% | CN1CCC(c2n[nH]c3ccc(S(=O)(=O)c4ccc5ccccc5c4)cc23)CC1
108 nM | 100% | CC(C)c1ccc(S(=O)(=O)c2ccc3[nH]nc(C4CCN(C)CC4)c3c2)cc1
